Measured values published in PubChem BioAssay (NCI).
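Values below derive from 48-hour exposures of cells grown in 96-well plates, with endpoints linearly interpolated between the two concentrations bracketing the appropriate inhibition level. TGI: concentration producing complete growth inhibition.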

What follows are compounds tested on SK-MEL-5 melanoma (assay: DTP human tumour cell line panel, 48 h).

Compared with O=C(O)c1cc(S(=O)(=O)N=NC=C2c3ccccc3N(O)c3ccccc32)ccc1O, O=[N+]([O-])C(=C(Sc1ccccc1)Sc1ccccc1)C(Cl)=C(Cl)Cl is 9-fold lower in TGI: 32.3 µM for the first, 3.58 µM for the second.

Going from CC(=O)OCC1OC(n2c(=S)[nH]c(-c3ccccc3)c(C#N)c2=O)C(OC(C)=O)C(OC(C)=O)C1OC(C)=O (stereo not given) to CCOC(=O)c1c(SCCN2CCCC2)n(-c2ccccc2)c(=S)n(-c2ccccc2)c1=O, the TGI falls from > 100 µM to 10 µM.

In the case of COC(=O)CCCC(=O)C(=Nc1c(Cl)cccc1Cl)NNc1ccc(Cl)cc1, the TGI was > 90.9 µM.

The compounds below were run on K-562 leukemia (assay: DTP human tumour cell line panel, 48 h).

Going from O=C1C(Cl)N(c2ccccc2)C1c1c[nH]c2ccccc12 (stereo not given) to CCOC(=O)c1c(SCCN2CCCC2)n(-c2ccccc2)c(=S)n(-c2ccccc2)c1=O, the TGI falls from > 100 µM to 5.63 µM.

COc1cc2c(NCCCCCCO[N+](=O)[O-])ncnc2c(OC)c1OC and COC(=O)CCCC(=O)C(=Nc1c(Cl)cccc1Cl)NNc1ccc(Cl)cc1 cannot be ordered by TGI: > 100 µM for the first, > 100 µM for the second.

Going from O=C(O)c1cc(S(=O)(=O)N=NC=C2c3ccccc3N(O)c3ccccc32)ccc1O to O=[N+]([O-])C(=C(Sc1ccccc1)Sc1ccccc1)C(Cl)=C(Cl)Cl, the TGI falls from > 100 µM to 0.701 µM.

CC(=O)OCC1OC(n2c(=S)[nH]c(-c3ccccc3)c(C#N)c2=O)C(OC(C)=O)C(OC(C)=O)C1OC(C)=O (stereo not given) was tested, and the TGI was > 100 µM.

The compounds below were run on NCI-H460 lung (assay: DTP human tumour cell line panel, 48 h).

Going from O=C1C(Cl)N(c2ccccc2)C1c1c[nH]c2ccccc12 (stereo not given) to CCOC(=O)c1c(SCCN2CCCC2)n(-c2ccccc2)c(=S)n(-c2ccccc2)c1=O, the TGI falls from > 100 µM to 12.3 µM.

Compared with COc1cc2c(NCCCCCCO[N+](=O)[O-])ncnc2c(OC)c1OC, COC(=O)CCCC(=O)C(=Nc1c(Cl)cccc1Cl)NNc1ccc(Cl)cc1 is higher in TGI: 69.8 µM for the first, > 100 µM for the second.

Compared with O=C(O)c1cc(S(=O)(=O)N=NC=C2c3ccccc3N(O)c3ccccc32)ccc1O, O=[N+]([O-])C(=C(Sc1ccccc1)Sc1ccccc1)C(Cl)=C(Cl)Cl is 2-fold lower in TGI: 33.5 µM for the first, 16.6 µM for the second.

In the case of CC(=O)OCC1OC(n2c(=S)[nH]c(-c3ccccc3)c(C#N)c2=O)C(OC(C)=O)C(OC(C)=O)C1OC(C)=O (stereo not given), the TGI was > 100 µM.

Each compound was assayed on DMS 114 small cell lung (assay: DTP human tumour cell line panel, 48 h).

Going from O=C1C(Cl)N(c2ccccc2)C1c1c[nH]c2ccccc12 (stereo not given) to O=C(O)c1cc(S(=O)(=O)N=NC=C2c3ccccc3N(O)c3ccccc32)ccc1O, the TGI falls from > 100 µM to 50.8 µM.

What follows are compounds tested on CCRF-CEM leukemia (assay: DTP human tumour cell line panel, 48 h).

Going from O=C1C(Cl)N(c2ccccc2)C1c1c[nH]c2ccccc12 (stereo not given) to CCOC(=O)c1c(SCCN2CCCC2)n(-c2ccccc2)c(=S)n(-c2ccccc2)c1=O, the TGI falls from > 100 µM to 4.14 µM.

COc1cc2c(NCCCCCCO[N+](=O)[O-])ncnc2c(OC)c1OC and COC(=O)CCCC(=O)C(=Nc1c(Cl)cccc1Cl)NNc1ccc(Cl)cc1 are within 1.5-fold of each other in TGI: 67.8 µM for the first, 75.3 µM for the second.

First: O=C(O)c1cc(S(=O)(=O)N=NC=C2c3ccccc3N(O)c3ccccc32)ccc1O
Second: O=[N+]([O-])C(=C(Sc1ccccc1)Sc1ccccc1)C(Cl)=C(Cl)Cl
The TGI of the first is 2100-fold higher: 86 µM for the first, 0.0419 µM for the second.

CC(=O)OCC1OC(n2c(=S)[nH]c(-c3ccccc3)c(C#N)c2=O)C(OC(C)=O)C(OC(C)=O)C1OC(C)=O (stereo not given) was tested, and the TGI was > 100 µM.

The compounds below were run on NCI-H522 lung (assay: DTP human tumour cell line panel, 48 h).

Compared with O=C1C(Cl)N(c2ccccc2)C1c1c[nH]c2ccccc12 (stereo not given), CCOC(=O)c1c(SCCN2CCCC2)n(-c2ccccc2)c(=S)n(-c2ccccc2)c1=O is lower in TGI: > 100 µM for the first, 4.08 µM for the second.

First: COc1cc2c(NCCCCCCO[N+](=O)[O-])ncnc2c(OC)c1OC
Second: COC(=O)CCCC(=O)C(=Nc1c(Cl)cccc1Cl)NNc1ccc(Cl)cc1
The TGI of the first is lower: 52.9 µM for the first, > 85.7 µM for the second.

First: O=C(O)c1cc(S(=O)(=O)N=NC=C2c3ccccc3N(O)c3ccccc32)ccc1O
Second: O=[N+]([O-])C(=C(Sc1ccccc1)Sc1ccccc1)C(Cl)=C(Cl)Cl
The TGI of the first is 170-fold higher: 23.8 µM for the first, 0.143 µM for the second.

CC(=O)OCC1OC(n2c(=S)[nH]c(-c3ccccc3)c(C#N)c2=O)C(OC(C)=O)C(OC(C)=O)C1OC(C)=O (stereo not given) was tested, and the TGI was > 100 µM.

What follows are compounds tested on KM20L2 colon (assay: DTP human tumour cell line panel, 48 h).

Going from O=C1C(Cl)N(c2ccccc2)C1c1c[nH]c2ccccc12 (stereo not given) to O=C(O)c1cc(S(=O)(=O)N=NC=C2c3ccccc3N(O)c3ccccc32)ccc1O, the TGI falls from > 100 µM to 63.6 µM.

These compounds were tested on HCT-15 colon (assay: DTP human tumour cell line panel, 48 h).

First: COc1cc2c(NCCCCCCO[N+](=O)[O-])ncnc2c(OC)c1OC
Second: COC(=O)CCCC(=O)C(=Nc1c(Cl)cccc1Cl)NNc1ccc(Cl)cc1
The TGI of the first is lower: 72.7 µM for the first, > 100 µM for the second.

First: O=C(O)c1cc(S(=O)(=O)N=NC=C2c3ccccc3N(O)c3ccccc32)ccc1O
Second: O=[N+]([O-])C(=C(Sc1ccccc1)Sc1ccccc1)C(Cl)=C(Cl)Cl
The TGI of the first is 21-fold higher: 21.2 µM for the first, 1.02 µM for the second.

Compared with CC(=O)OCC1OC(n2c(=S)[nH]c(-c3ccccc3)c(C#N)c2=O)C(OC(C)=O)C(OC(C)=O)C1OC(C)=O (stereo not given), CCOC(=O)c1c(SCCN2CCCC2)n(-c2ccccc2)c(=S)n(-c2ccccc2)c1=O is lower in TGI: > 100 µM for the first, 5.54 µM for the second.

What follows are compounds tested on M19-MEL melanoma (assay: DTP human tumour cell line panel, 48 h).

Going from O=C1C(Cl)N(c2ccccc2)C1c1c[nH]c2ccccc12 (stereo not given) to O=C(O)c1cc(S(=O)(=O)N=NC=C2c3ccccc3N(O)c3ccccc32)ccc1O, the TGI falls from > 100 µM to 58.6 µM.

What follows are compounds tested on MOLT-4 leukemia (assay: DTP human tumour cell line panel, 48 h).

First: O=C1C(Cl)N(c2ccccc2)C1c1c[nH]c2ccccc12 (stereo not given)
Second: CCOC(=O)c1c(SCCN2CCCC2)n(-c2ccccc2)c(=S)n(-c2ccccc2)c1=O
The TGI of the first is higher: > 100 µM for the first, 5.11 µM for the second.

COc1cc2c(NCCCCCCO[N+](=O)[O-])ncnc2c(OC)c1OC and CC(=O)OCC1OC(n2c(=S)[nH]c(-c3ccccc3)c(C#N)c2=O)C(OC(C)=O)C(OC(C)=O)C1OC(C)=O (stereo not given) cannot be ordered by TGI: > 61.9 µM for the first, > 100 µM for the second.

Work on O=C(O)c1cc(S(=O)(=O)N=NC=C2c3ccccc3N(O)c3ccccc32)ccc1O yielded a TGI of 45.1 µM.
